Test results: ChEMBL document CHEMBL3885881, “DrugMatrix”

Species on record: Rattus norvegicus
Assay: DrugMatrix - Regimen: Daily Repeat
Assay type: toxicity, organism-based, Sprague-Dawley
Design: regimen Daily Repeat, gender Male, age 6-8 weeks
Details: in vivo, po, 10 mg/kg, route oral GAVAGE, dose level Low, […]; for ABSOLUTE BASOPHIL / ABSOLUTE EOSINOPHIL / ABSOLUTE LYMPHOCYTE / ABSOLUTE MONOCYTE / ABSOLUTE SEGMENTED NEUTROPHIL / BASOPHIL / EOSINOPHIL / ERYTHROCYTE COUNT / HEMATOCRIT / HEMOGLOBIN / LEUKOCYTE COUNT / LYMPHOCYTE / MEAN CORPUSCULAR HEMOGLOBIN / MEAN CORPUSCULAR HEMOGLOBIN CONCENTRATION / MEAN CORPUSCULAR VOLUME / MONOCYTE / NEUTROPHIL / NUCLEATED RED BLOOD CELLS / PLATELET COUNT: tissue Blood; for ALANINE AMINOTRANSFERASE / ALBUMIN / ALKALINE PHOSPHATASE / ASPARTATE AMINOTRANSFERASE / BLOOD UREA NITROGEN / CARBON DIOXIDE / CHLORIDE / CHOLESTEROL / CREATINE PHOSPHOKINASE / CREATININE / GLUCOSE / LACTATE DEHYDROGENASE / LIPASE / PHOSPHORUS / POTASSIUM / SODIUM / TOTAL BILIRUBIN / TOTAL PROTEIN / URIC ACID: tissue Plasma

Compound: OC(Cn1cncn1)(Cn1cncn1)c1ccc(F)cc1F [FLUCONAZOLE]
- ABSOLUTE BASOPHIL (72 h, time 3 day): 0 CELLS/uL
- ABSOLUTE EOSINOPHIL (72 h, time 3 day): 105 CELLS/uL
- ABSOLUTE LYMPHOCYTE (72 h, time 3 day): 3531.33 CELLS/uL
- ABSOLUTE MONOCYTE (72 h, time 3 day): 187.33 CELLS/uL
- ABSOLUTE SEGMENTED NEUTROPHIL (72 h, time 3 day): 2209.67 CELLS/uL
- BASOPHIL (72 h, time 3 day): 0%
- EOSINOPHIL (72 h, time 3 day): 1.67%
- ERYTHROCYTE COUNT (72 h, time 3 day): 5.95 x10E6/uL
- HEMATOCRIT (72 h, time 3 day): 39.17%
- HEMOGLOBIN (72 h, time 3 day): 15.1 G/DL
- LEUKOCYTE COUNT (72 h, time 3 day): 6.03 x10E3/uL
- LYMPHOCYTE (72 h, time 3 day): 58%
- MEAN CORPUSCULAR HEMOGLOBIN (72 h, time 3 day): 25.67 pg
- MEAN CORPUSCULAR HEMOGLOBIN CONCENTRATION (72 h, time 3 day): 38.63 G/DL
- MEAN CORPUSCULAR VOLUME (72 h, time 3 day): 66.27 fL
- MONOCYTE (72 h, time 3 day): 3%
- NEUTROPHIL (72 h, time 3 day): 37.33%
- NUCLEATED RED BLOOD CELLS (72 h, time 3 day): 0 /100WBC
- PLATELET COUNT (72 h, time 3 day): 1032.33 x10E3/uL
- ALANINE AMINOTRANSFERASE (72 h, time 3 day): 59.33 u/L
- ALBUMIN (72 h, time 3 day): 4.63 G/DL
- ALKALINE PHOSPHATASE (72 h, time 3 day): 452.67 u/L
- ASPARTATE AMINOTRANSFERASE (72 h, time 3 day): 96 u/L
- BLOOD UREA NITROGEN (72 h, time 3 day): 19.33 mg/dL
- CARBON DIOXIDE (72 h, time 3 day): 20.67 mmol/L
- CHLORIDE (72 h, time 3 day): 101.33 MEQ/L
- CHOLESTEROL (72 h, time 3 day): 45.67 mg/dL
- CREATINE PHOSPHOKINASE (72 h, time 3 day): 639.33 u/L
- CREATININE (72 h, time 3 day): 0.14 mg/dL
- GLUCOSE (72 h, time 3 day): 174 mg/dL
- LACTATE DEHYDROGENASE (72 h, time 3 day): 123 u/L
- LIPASE (72 h, time 3 day): 24.67 u/L
- PHOSPHORUS (72 h, time 3 day): 11.63 mg/dL
- POTASSIUM (72 h, time 3 day): 6.15 MEQ/L
- SODIUM (72 h, time 3 day): 142.57 MEQ/L
- TOTAL BILIRUBIN (72 h, time 3 day): 0.23 mg/dL
- TOTAL PROTEIN (72 h, time 3 day): 6.43 G/DL
- URIC ACID (72 h, time 3 day): 1.47 mg/dL
- ABSOLUTE BASOPHIL (120 h, time 5 day): 0 CELLS/uL
- ABSOLUTE EOSINOPHIL (120 h, time 5 day): 0 CELLS/uL
- ABSOLUTE LYMPHOCYTE (120 h, time 5 day): 10059.67 CELLS/uL
- ABSOLUTE MONOCYTE (120 h, time 5 day): 397 CELLS/uL
- ABSOLUTE SEGMENTED NEUTROPHIL (120 h, time 5 day): 1576.67 CELLS/uL
- BASOPHIL (120 h, time 5 day): 0%
- EOSINOPHIL (120 h, time 5 day): 0%
- ERYTHROCYTE COUNT (120 h, time 5 day): 6.01 x10E6/uL
- HEMATOCRIT (120 h, time 5 day): 38.4%
- HEMOGLOBIN (120 h, time 5 day): 14.77 G/DL
- LEUKOCYTE COUNT (120 h, time 5 day): 12.03 x10E3/uL
- LYMPHOCYTE (120 h, time 5 day): 83.33%
- MEAN CORPUSCULAR HEMOGLOBIN (120 h, time 5 day): 24.57 pg
- MEAN CORPUSCULAR HEMOGLOBIN CONCENTRATION (120 h, time 5 day): 38.5 G/DL
- MEAN CORPUSCULAR VOLUME (120 h, time 5 day): 63.9 fL
- MONOCYTE (120 h, time 5 day): 3.33%
- NEUTROPHIL (120 h, time 5 day): 13.33%
- NUCLEATED RED BLOOD CELLS (120 h, time 5 day): 0.33 /100WBC
- PLATELET COUNT (120 h, time 5 day): 1300 x10E3/uL
- ALANINE AMINOTRANSFERASE (120 h, time 5 day): 78.67 u/L
- ALBUMIN (120 h, time 5 day): 4.23 G/DL
- ALKALINE PHOSPHATASE (120 h, time 5 day): 452.67 u/L
- ASPARTATE AMINOTRANSFERASE (120 h, time 5 day): 86.67 u/L
- BLOOD UREA NITROGEN (120 h, time 5 day): 10.67 mg/dL
- CARBON DIOXIDE (120 h, time 5 day): 27 mmol/L
- CHLORIDE (120 h, time 5 day): 100.67 MEQ/L
- CHOLESTEROL (120 h, time 5 day): 56 mg/dL
- CREATINE PHOSPHOKINASE (120 h, time 5 day): 230.33 u/L
- CREATININE (120 h, time 5 day): 0.11 mg/dL
- GLUCOSE (120 h, time 5 day): 169.67 mg/dL
- LACTATE DEHYDROGENASE (120 h, time 5 day): 181.33 u/L
- LIPASE (120 h, time 5 day): 6.67 u/L
- PHOSPHORUS (120 h, time 5 day): 11.83 mg/dL
- POTASSIUM (120 h, time 5 day): 5.55 MEQ/L
- SODIUM (120 h, time 5 day): 141.67 MEQ/L
- TOTAL BILIRUBIN (120 h, time 5 day): 0.2 mg/dL
- TOTAL PROTEIN (120 h, time 5 day): 6.23 G/DL
- URIC ACID (120 h, time 5 day): 1.3 mg/dL
